Source: patent US11648239B2, “Azophenols as ERG oncogene inhibitors” (The Henry M. Jackson Foundation for the Advancement of …, priority 2015, dated 2023)

Legend:
[1] = tested on: BPH-1 cells; test: BPH-1 cell growth; format: cell-based; settings: 0.25 μM and 1 μM, FIG. 12
Experimental: (§1) Approximately 48 hours following plating of cells, the appropriate test compound is added to each well of the tissue culture dish at a predetermined concentration. The medium was replenished every 24 hours with fresh growth medium containing the same concentration of the same test compound for indicated period of the cell growth inhibition assay. Percent cell growth inhibition was calculated using a hemocytometer for estimating cell density in each of the test wells of the tissue culture dish and trypan blue dye exclusion microscopy and photography to estimate the fraction of viable cells in each test well.

[2] = molecular target: T1, ERG protein (Homo sapiens, UniProt P11308); test: Inhibition of endogenous ERG protein in COLO320 cells (Western blot); format: cell-based; parameters: host or cells: COLO320; settings: 0.25 μM and 1 μM, FIG. 8
T1 sequence (P11308 1-479): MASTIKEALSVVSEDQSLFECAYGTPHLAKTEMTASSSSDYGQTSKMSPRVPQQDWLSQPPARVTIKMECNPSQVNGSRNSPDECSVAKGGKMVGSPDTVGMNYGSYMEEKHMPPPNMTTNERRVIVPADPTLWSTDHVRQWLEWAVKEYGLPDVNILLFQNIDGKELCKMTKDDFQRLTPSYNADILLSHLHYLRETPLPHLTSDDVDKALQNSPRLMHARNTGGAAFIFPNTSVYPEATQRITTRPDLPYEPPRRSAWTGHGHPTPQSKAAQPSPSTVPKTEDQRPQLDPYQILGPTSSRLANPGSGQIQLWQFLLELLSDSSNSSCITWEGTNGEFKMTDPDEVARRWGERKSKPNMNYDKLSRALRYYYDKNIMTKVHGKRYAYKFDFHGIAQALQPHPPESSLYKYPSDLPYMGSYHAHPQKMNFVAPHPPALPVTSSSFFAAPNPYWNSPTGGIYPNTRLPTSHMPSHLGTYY
Experimental: (§2) Inhibition of ERG protein expression by the test compounds were determined by Western blot analysis. The ERG specific monoclonal antibody CPDR ERG-MAb was used as the primary antibody. In brief, Western blot was performed by running a fixed amount of total protein extracted from cell lysates of the treated cells using (4-12% Bis-Tris) gel by electrophoresis, followed by transfer to membrane and incubation with primary antibody and continued with HRP-conjugated secondary antibody. Cultured cells were treated at specific dosages with each of the tested ERG inhibitors. Following incubation of the treated cells for an indicated time period, cells were lysed using Mammalian Protein Extraction Reagent (M-PER; Pierce, Rockford, Ill.) containing a protease inhibitor cocktail and phosphatase inhibitor cocktails I & III (Sigma, St Louis, Mo.). Cell lysates containing 50 μg of total protein were electrophoresed through 4-12% Bis-Tris Gel (Invitrogen, Carlsbad, Calif.) and the cellular proteins were transferred to PVDF membrane (Invitrogen, Carlsbad, Calif.). Membranes were incubated at 4° C. for 12 hours with primary antibodies for AR, PSA, GAPDH, α-Tubulin, apoptosis markers and cell cycle regulators. […]

[3] = tested on: VCaP cells; test: VCaP cell growth inhibition; format: cell-based; settings: for inhibition of VCaP cell growth: 0.1, 0.2, 0.4, 0.6, 0.8 and 1 μM, FIG. 15, 18; for inhibition of the growth of ERG harboring prostate cancer cells: VCaP, 0.25 μM and 1 μM, FIG. 3
Experimental: as §1
To investigate whether the azophenol compounds selectively arrested the growth of ERG positive cancer cells (VCaP), VCaP cells were cultured to achieve cells in logarithmic growth and these cells were then plated in 6 well tissue culture dishes in duplicates at a cell density of 0.2×10^6 cells per well. The plated cells were exposed to 0, 0.2, 0.4, 0.6, 0.8 and 1 μM concentrations of each compound for a period of 8 days. At the end of time period, cells were recovered from the test plate, washed, trypsinized and the cell density of viable cells were determined with trypan blue dye staining method and automated cell counter Bio-Rad TC10. The IC50 of cell growth inhibition of each compound was determined by trypsinizing the cells at the end of the experiment and counting the cells by using the automated cell counter (Bio-Rad TC10 automated cell counter). The average cell numbers of each concentration were used to calculate the IC50 of each compound with the GraphPad Prism 6 software.

[4] = molecular target: T2, RIOK2 protein (Homo sapiens, UniProt Q9BVS4); test: Inhibition of RIOK2 protein in VCaP cells (Western blot); format: cell-based; parameters: host or cells: VCaP; settings: 0.1, 0.2, 0.4, 0.6, 0.8 and 1 μM; FIG. 14, 17
T2 sequence (Q9BVS4 whole entry): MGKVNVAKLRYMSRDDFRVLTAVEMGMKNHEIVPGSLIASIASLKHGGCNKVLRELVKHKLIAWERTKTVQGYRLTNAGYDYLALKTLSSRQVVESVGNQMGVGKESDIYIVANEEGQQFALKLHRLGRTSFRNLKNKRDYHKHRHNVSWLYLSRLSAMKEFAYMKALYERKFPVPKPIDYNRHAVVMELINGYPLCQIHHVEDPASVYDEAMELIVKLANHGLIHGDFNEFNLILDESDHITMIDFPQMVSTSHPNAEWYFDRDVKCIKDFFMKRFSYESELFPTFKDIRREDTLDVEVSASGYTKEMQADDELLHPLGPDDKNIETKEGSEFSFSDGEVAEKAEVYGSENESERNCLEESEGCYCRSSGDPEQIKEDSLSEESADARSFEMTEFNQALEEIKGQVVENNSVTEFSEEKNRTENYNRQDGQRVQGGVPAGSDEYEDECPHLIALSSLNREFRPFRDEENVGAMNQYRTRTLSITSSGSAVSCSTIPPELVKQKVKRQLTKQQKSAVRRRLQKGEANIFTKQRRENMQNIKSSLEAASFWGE

[5] = tested on: PSA; test: Inhibition of endogenous PSA protein in LNCaP cells (Western blot); format: cell-based; settings: ERG negative LNCaP; 0.25 μM and 1 μM; FIG. 4
Experimental: (§3) To investigate whether the azophenol compounds of the invention are selective inhibitors of ERG protein expression, representative azophenol compounds were further tested for its ability to inhibit AR and PSA activity in the following AR positive/ERG negative prostate cancer cell lines: LNCaP (mutant AR positive and ERG negative), as well as in LAPC4 cells that are AR (wild type) positive and ERG negative.
as §2, with “Mo.).” for “Mo.). Cell lysates containing 50 μg of total protein were electrophoresed through 4-12% Bis-Tris Gel (Invitrogen, Carlsbad, Calif.) and the cellular proteins were transferred to PVDF membrane (Invitrogen, Carlsbad, Calif.). Membranes were incubated at 4° C. for 12 hours with primary antibodies for AR, PSA, GAPDH, α-Tubulin, apoptosis markers and cell cycle regulators.”

[6] = tested on: AR; test: Inhibition of endogenous AR protein in LAPC-4 cells (Western blot); format: cell-based; settings: ERG negative LAPC-4; 0.25 μM and 1 μM; FIG. 6
Experimental: as §3
as §2, with “Mo.).” for “Mo.). Cell lysates containing 50 μg of total protein were electrophoresed through 4-12% Bis-Tris Gel (Invitrogen, Carlsbad, Calif.) and the cellular proteins were transferred to PVDF membrane (Invitrogen, Carlsbad, Calif.). Membranes were incubated at 4° C. for 12 hours with primary antibodies for AR, PSA, GAPDH, α-Tubulin, apoptosis markers and cell cycle regulators.”

[7] = tested on: HUVEC; test: HUVEC cell growth; format: cell-based, human; settings: 0.25 μM and 1 μM, FIG. 11
Experimental: as §1

[8] = tested on: LAPC-4 cells; test: LAPC-4 cell growth; format: cell-based; settings: 0.25 μM and 1 μM, FIG. 7
Experimental: as §1

[9] = molecular target: T1, ERG protein; test: Inhibition of ERG protein in HUVEC normal endothelial cells (Western blot); format: cell-based; settings: 0.25 μM and 1 μM, FIG. 10
Experimental: as §2

[10] = tested on: LNCaP cells; test: LNCaP cell growth; format: cell-based; settings: 0.25 μM and 1 μM, FIG. 5
Experimental: as §1

[11] = tested on: AR; test: Inhibition of endogenous AR protein in VCaP cells (Western blot); format: cell-based; settings: 0.25 μM and 1 μM, FIG. 2
Experimental: as §2

[12] = tested on: COLO320 cells; test: COLO320 cell growth; format: cell-based; settings: 0.25 μM and 1 μM, FIG. 9
Experimental: as §1

[13] = tested on: PSA; test: Inhibition of endogenous PSA protein in VCaP cells (Western blot); format: cell-based; settings: 0.25 μM and 1 μM, FIG. 2
Experimental: as §2

[14] = molecular target: T2, RIOK2 protein; test: Inhibition of endogenous RIOK2 protein in COLO320 cells (Western blot); format: cell-based; settings: 0.25 μM and 1 μM, FIG. 8
[15] = molecular target: T3, ERG protein (Homo sapiens, UniProt P11308); test: Inhibition of ERG protein in VCaP cells (Western blot); format: cell-based; settings: for inhibition of ERG protein in VCaP cells: 0.1, 0.2, 0.4, 0.6, 0.8 and 1 μM, FIG. 13, 16; for inhibition of endogenous ERG protein: VCaP, 0.25 μM and 1 μM, FIG. 2
T3 construct: host or cells: VCaP
T3 sequence (P11308 33-479 limits assumed): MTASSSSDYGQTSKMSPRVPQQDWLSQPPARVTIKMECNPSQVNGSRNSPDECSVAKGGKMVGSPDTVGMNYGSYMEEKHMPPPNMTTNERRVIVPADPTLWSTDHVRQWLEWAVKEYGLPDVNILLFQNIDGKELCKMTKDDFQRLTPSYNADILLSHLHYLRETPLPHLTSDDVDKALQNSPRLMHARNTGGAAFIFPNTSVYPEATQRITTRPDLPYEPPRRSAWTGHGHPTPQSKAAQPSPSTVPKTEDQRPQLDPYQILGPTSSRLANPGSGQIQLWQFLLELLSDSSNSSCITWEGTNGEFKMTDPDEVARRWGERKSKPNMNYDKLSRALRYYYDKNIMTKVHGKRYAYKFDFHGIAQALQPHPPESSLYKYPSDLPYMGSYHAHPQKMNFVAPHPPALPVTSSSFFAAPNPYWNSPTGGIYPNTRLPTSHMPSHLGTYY
Experimental: The TMPRSS2-ERG fusion positive prostate cancer cell line, VCaP (ATCC), was used to identify the test compound inhibitors of ERG expression. Cells were grown in medium using conditions prescribed by the vendor. VCaP cells in logarithmic growth were seeded in a tissue culture dish at a cell density of 2×10^6 cells per plate. Following 48 hours incubation at 37° C., cells were exposed for a period of 48 hours with 0, 0.05, 0.25 and 0.5 μM concentrations of each test azophenol compound. The inhibition of ERG expression was evaluated by an In-cell Western blot assay (LI-COR Biosciences, Lincoln, Nebr.) using the ERG specific CPDR ERG-MAb as further described below.
Inhibition of ERG protein expression by the test compounds were determined by Western blot analysis. The ERG specific monoclonal antibody CPDR ERG-MAb was used as the primary antibody. In brief, Western blot was performed by running a fixed amount of total protein extracted from cell lysates of the treated cells using (4-12% Bis-Tris) gel by electrophoresis, followed by transfer to membrane and incubation with primary antibody and continued with HRP-conjugated secondary antibody. Cultured cells were treated at specific dosages with each of the tested ERG inhibitors. Following incubation of the treated cells for an indicated time period, cells were lysed using Mammalian Protein Extraction Reagent (M-PER; Pierce, Rockford, Ill.) containing a protease inhibitor cocktail and phosphatase inhibitor cocktails I & III (Sigma, St Louis, Mo.). Cell lysates containing 50 μg of total protein were electrophoresed through 4-12% Bis-Tris Gel (Invitrogen, Carlsbad, Calif.) and the cellular proteins were transferred to PVDF membrane (Invitrogen, Carlsbad, Calif.). Membranes were incubated at 4° C. for 12 hours with primary antibodies for AR, PSA, GAPDH, α-Tubulin, apoptosis markers and cell cycle regulators. Following exposure to primary antibodies, the membranes were washed with buffer (3×, 5 minutes each at room temperature) followed by incubation with relevant secondary antibodies for 1 hour at 24° C. Finally, the membranes were washed with buffer and developed using the ECL Western blot detection reagent (GE Health Care, Buckinghamshire, UK). The ERG protein expression of the test azophenol compounds were normalized with GAPDH.
In brief, ERG positive VCaP cells in loganthmic growth phase were plated in 10 cm tissue culture dish at a cell density of 2×10^6 cells per dish. The plated cells were treated with 0, 0.2, 0.4, 0.6, 0.8 and 1 μM concentrations of each azophenol compound for a period of 48 hours. Cells from each dish were then processed for Western blot analysis and alterations in the expression of ERG protein were monitored. Both ERG and GAPDH protein band were quantified from each concentration using Image J (NIH) and ERG band density was normalized with corresponding GAPDH protein control. Relative density of ERG in each concentration was calculated and with Graphpad Prism 6 software, the IC50 of each compound was calculated.

[16] = tested on: AR; test: Inhibition of endogenous AR protein in LNCaP cells (Western blot); format: cell-based; settings: ERG negative LNCaP; 0.25 μM and 1 μM; FIG. 4
Experimental: as §3
as §2, with “Mo.).” for “Mo.). Cell lysates containing 50 μg of total protein were electrophoresed through 4-12% Bis-Tris Gel (Invitrogen, Carlsbad, Calif.) and the cellular proteins were transferred to PVDF membrane (Invitrogen, Carlsbad, Calif.). Membranes were incubated at 4° C. for 12 hours with primary antibodies for AR, PSA, GAPDH, α-Tubulin, apoptosis markers and cell cycle regulators.”

[17] = tested on: RWPE-1 cells; test: RWPE-1 cell growth; format: cell-based; settings: 0.25 μM and 1 μM, FIG. 12
Experimental: as §1

[18] = molecular target: T2, RIOK2 protein; test: Inhibition of RIOK2 protein in HUVEC normal endothelial cells (Western blot); format: cell-based; parameters: ERG and RIOK2 proteins in endogenous ERG expressing normal endothelial cells (HUVEC); host or cells: HUVEC; settings: 0.25 μM and 1 μM, FIG. 10

Compound | growth of ERG negative prostate-derived immortalized cells [1] | inhibition of endogenous ERG protein [2] | inhibition of VCaP cell growth [3] | inhibition of the growth of ERG harboring prostate cancer cells [3] | inhibition of RIOK2 protein in VCaP cells [4] | inhibition of endogenous PSA protein [5] | inhibition of endogenous AR protein [6] | growth of ERG harboring normal endothelial cells [7] | growth of ERG negative prostate cancer cells [8] | inhibition of ERG protein [9] | growth of ERG negative prostate cancer cells [10] | inhibition of endogenous AR protein [11] | inhibition of growth of ERG harboring colon cancer cells [12] | inhibition of endogenous PSA protein [13] | inhibition of endogenous RIOK2 protein [14] | inhibition of ERG protein in VCaP cells [15] | inhibition of endogenous ERG protein [15] | inhibition of endogenous AR protein [16] | growth of ERG negative prostate-derived immortalized cells [17] | inhibition of RIOK2 protein [18]
CC(C)c1ccc(O)c(N=Nc2nccs2)c1 [Compound 1] | do not affect the growth | inhibition | inhibition | inhibition | inhibition | lack of inhibition | do not inhibit | do not affect the growth | do not affect the growth | lack of inhibition | do not affect the growth | inhibition | inhibition | inhibition | inhibition | inhibition | inhibition | lack of inhibition | do not affect the growth | lack of inhibition
Cc1ccc(O)c(N=Nc2nccs2)c1 [Compound 2] | do not affect the growth | inhibition | inhibition | inhibition | inhibition | lack of inhibition | do not inhibit | do not affect the growth | do not affect the growth | lack of inhibition | do not affect the growth | inhibition | inhibition | inhibition | inhibition | inhibition | inhibition | lack of inhibition | do not affect the growth | lack of inhibition
